Patent US20050261319A1, “Novel 2-amino-4-quinazolinones and 2-amino-4-oxoquinazolones as LXR nuclear receptor binding compounds with partial agonistic properties” (priority 2002, published 2005)
Like-named read-outs stand apart in the source and are kept apart here.

Experiments:
Assay type in all cases: cell-based
[1] = target: T1, GAL4-LXRa-LBD (Homo sapiens, UniProt Q13133); assay: Mammalian one hybrid (M1H) luciferase assay in HEK293 cells, LXR alpha LBD
T1 construct: expressed in transfected cells; host or cells: HEK293
T1 sequence (Q13133 209-447 limits assumed): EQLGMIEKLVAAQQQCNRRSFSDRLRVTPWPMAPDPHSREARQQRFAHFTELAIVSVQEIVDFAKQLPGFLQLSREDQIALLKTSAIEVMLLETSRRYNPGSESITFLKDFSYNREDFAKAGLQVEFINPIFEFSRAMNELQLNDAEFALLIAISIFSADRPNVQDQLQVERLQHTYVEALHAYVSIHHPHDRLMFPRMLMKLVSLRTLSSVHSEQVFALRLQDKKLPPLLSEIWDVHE
Procedure: For TR1040001892, TR1040011382, TR1040002211, and TR1040002212, HEK293 cells are grown in 96 well plates and co-transfected with pFR-luc (Stratagene) and pCMV-BD-LXRa-LBD or pCMV-BD-LXRb-LBD (each 100 ng of plasmid DNA per well). Transfection is carried using Lipfectamine 2000 (Gibco-BRL) according to the manufacturers protocol. The ligand binding domains (LBD) of LXRa and LXRb are cloned into the pCMV-BD-GW (the Gateway Reading Frame Cassette B is cloned as an EcoRV fragment into Sma1 site of pCMV-BD) applying the manufacturer protocols for the Gateway system (Invitrogen). […] The type of assay used here is a mammalian one hybrid (M1 H) assay that is known to those skilled in the art.

[2] = system: HepG2 liver cells; assay: Triglyceride assay in HepG2 cells; conditions: 24 h, 25 pM
Procedure: Methods: Cultures of the monocyte-macrophage cell line and the hepatocytes HepG2 are obtained from the American Type tissue Culture Collection, Rockville, Md. and were grown in RPMI 1640 medium supplemented with 10% fetal bovine serum, 10 mM HEPES, 2 mM pyruvate, 50 uM (3-Mercaptoethanol (THP-1) and Minimum essential medium (Eagle) with 2 mM L-glutamine and Earle's BSS supplemented with 10% fetal bovine serum, 2 mM glutamin, 0.1 mM non-essential amino acids, 1 mM sodium pyruvate (HepG2), respectively, at 37° C. in 5% CO2.
For cholesterol efflux measurements and triglyceride analysis cells are seeded in 6 well plates at 1.8×10^6 cells (THP-1) and 1×10^6 cells (HepG2) per well, respectively.
TRIGLYCERIDE ASSAY HepG2 cells are seeded in poly-L-Lysine coated 6 well plates at 1×10^6 cells per well in EMEM medium containing 10% FCS until they were appr. 60% confluent. Before treatment with LXR compounds growth medium is changed to medium containing 10% charcoal/dextran-stripped FCS for 12 h. Treatment is done for 24 h in medium containing 10% charcoal/dextran-stripped FCS. Cells are washed twice with ice-cold PBS/0.2% BSA and twice with cold PBS and all liquid carefully removed. Triglyceride are extracted with 1.5 ml hexane/isopropanol=3: 2 per well with gentle shaking for 2-3 h at RT according to Pan et al. (2002) JBC277, 4413-4421 and Goti et al. (1998) Biochem J, 332, 57-65. The extraction solution is collected, dried under vacuum and redissolved in isopropanol/1.5% triton. The remaining cellular proteins are lysed with 0.3 N NaOH and protein content measured with the Biorad Bradford reagent.
Triglyceride levels are measured as esterified glycerol using a commercial enzymatic colorimetric kit (Sigma 343-25P). In a preliminary assay it is checked by omitting the lipase enzyme that contribution of free glycerol is negligible.

[3] = system: ABCA1 and ABCG1 in THP-1 cells; assay: mRNA content of LXR target genes ABCA1 and ABCG1 in THP-1 cells (TaqMan)
Procedure: THP-1 (3×10^5 cells per dish) cells were seeded in […] RPMI-1640 medium (ATTC, Cat. No. 30-2001) containing 10% FCS (GIBCO) and 100 nM TPA and cultivated at 37° C. in 5% CO2 for 24 or 48 hours. HepG2 (4.5×10^5 cells per dish) were seeded in 24 well dishes in 3 ml DMEM Medium containing 10% FCS (GIBCO) and cultivated at 37° C. in 5% CO2 for 48 hours as indicated in FIG. 8B or until they are approx. 60% confluent.
The medium was then removed and replaced with medium containing 10% charcoal/stripped FCS (Hyclone) for 12 h.
LXR compounds are dissolved in DMSO, with the final solvent concentration never exceeding 0.125%. All treatments are done in triplicates and experiments repeated twice. Total RNA is extracted using the Qiagen Rneasy Mini Kit and treated with DNase (DNA free kit, Ambion). RNA is reverse transcribed with Oligo (dT) primer and real-time reverse transcription PCR (TaqMan) is performed using the ABI Prism 7900HT Sequence Detection System and reagents supplied by Applied Biosystems. mRNA steady state levels are normalised to H3 histone (H3F3A) expression levels.
The sequences of forward primers, reverse primers and TaqMan probes are as follows

Structure (SMILES) | luciferase reporter gene expression mediated through GAL4-LXRa-LBD [1] | triglyceride mass [2] | selectivity of upregulation of ABCA1 and ABCG1 in THP-1 cells versus FAS and SREBP-1c in HepG2 cells [3] | selectivity of upregulation of ABCA1 and ABCG1 in THP-1 cells versus FAS and SREBP-1c in HepG2 cells ([3]; listed as TR1040011382) | selectivity of upregulation of ABCA1 and ABCG1 in THP-1 cells versus FAS and SREBP-1c in HepG2 cells ([3]; listed as TR1040001892)
CC(C)n1c(N2C3CC(C)(C)CC2(C)C3)nc2ccc(I)cc2c1=O (centres unmarked) [formula (10)] | activate luciferase reporter gene expression in a dose dependent manner | do not cause a significant increase | selective upregulation | selective transcriptional effect | 
C=CCn1c(N2[C@@H]3CC(C)(C)C[C@@]2(C)C3)nc2cccc(F)c2c1=O [formula (12)] | activate luciferase reporter gene expression in a dose dependent manner | slight increase | reduced selectivity |  | 
CCCn1c(N2[C@@H]3CC(C)(C)C[C@@]2(C)C3)nc2cccc(F)c2c1=O [formula (11)] | activate luciferase reporter gene expression in a dose dependent manner | slight increase | reduced selectivity |  | 
C=CCn1c(N2C3CC(C)(C)CC2(C)C3)nc2ccc(I)cc2c1=O (centres unmarked) [formula (9)] | activate luciferase reporter gene expression in a dose dependent manner | do not cause a significant increase | selective upregulation |  | selective transcriptional effect
